Experimental data reported in patent US20130041005A1, “PHARMACEUTICAL COMPOSITIONS COMPRISING NEUROPILIN INHIBITORS, AND THEIR USE FOR THE PREVENTION AND/OR TREATMENT OF ANGIOGENIC DISORDERS AND CANCERS” (TRAGEX PHARMA, priority 2011, published 2013).

Key:
Assay type in all cases: cell-based
HUVEC cells = test: WST-1 proliferation assay, HUVEC; conditions: for cytotoxicity for endothelial cell lines (HUVEC cells) in culture: FIG. 1 cell survival; for IC50: Homo sapiens, HUVEC, 72 h, read-out: Anti-proliferative activity on HUVEC cells (IC50)
Protocol: Cells were grown as subconfluent monolayer and cultured in 75 cm^2 flasks at 37° C., 5% CO2 in a humidified atmosphere, and medium was changed every two days. Only cells from passages 2-6 were used for the experiments.
All cells were detached with 3 ml of trypsin/EDTA (chelator of calcium and magnesium ions) (Lonza), incubated for 5 min at 37° C., and examined using a microscope to ensure that the cells were detached and floating. […] The supernatant was removed and the cell pellet resuspended in […] of culture medium. 50 μl of this solution were transferred in 20 μl of isotonic solution and the cells were counted by count cellular (Beckman Coulter).
The cell proliferation WST-1 assay is a colorimetric assay for the quantification of cell proliferation and viability, based on the enzymatic cleavage of the tetrazolium salt WST-1 added to the culture medium, to a water soluble colored formazan dye, detected by absorbance at 450 nm, by mitochondrial succinate-tetrazolium reductase in viable cells. An augmentation in enzyme activity will then lead to an increase in the amount of formazan dye formed, which directly correlates to the number of metabolically active cells in the culture.
After an incubation period of 72 h, at day 4, were prepared the […] medium with reagent WST-1 […] ([…]). The medium was removed from the 96 microplate and 200 μl of solution WST-1/medium were added for each well. The cells were incubated at 37° C. in a humidified atmosphere of 5% CO2 for 1 h 30 and the absorbance at 450-655 nm was measured by Microplate Manager 5.2 (Bio-Rad).

MDA-MB-436 = test: WST-1 proliferation assay, MDA-MB-436; conditions: Homo sapiens; Breast MDA-MB-436, 72 h; read-out: Anti-proliferative activity IC50 (μM) ± SD
Source text: (§1) Several cancer cell lines were used: breast cancer cells (MDA-MB-231 (ATTCC® Number HTB-26™), MDA-MB-436 (ATTCC® Number HTB-130™), MDA-MB-438, BT-474 (ATTCC® Number HTB-20™)); cervical cancer cells (HeLa (ATTCC® Number CCL-2™)); colon cancer cells (HCT-116 (ATTCC® Number CCL-247™) and HT-29 (ATTCC® Number HTB-38™)); osteosarcoma cells (U2OS (ATTCC® Number HTB-96™)); pancreas cancer cells (MIA PaCa-2 (ATTCC® Number CRL-1420™) and Panc-10.5 (ATTCC® Number CRL-2547™)); prostate cancer cells (PC-3 (ATTCC® Number CRL-1435™) and LNCaP (ATTCC® Number CRL-1740™)); brain cancer cells (U87 glioblastoma (ATTCC® Number HTB-14™) and SH-SYSY neuroblastoma (ATTCC® Number CRL-2266™)). […]
(§2) After observation of cells under the microscope, old media were removed and the adherent cells washed gently twice with PBS (Phosphate Buffer Saline, —Ca^2+, —Mg^2+, Lonza cat no: 17-512F/12). […] 50 μl of this solution were transferred in 20 μl of isotonic solution and the cells were counted by count cellular (Beckman Coulter). […]
(§3) The cell proliferation WST-1 assay is a colorimetric assay for the quantification of cell proliferation and viability, based on the enzymatic cleavage of the tetrazolium salt WST-1 added to the culture medium, to a water soluble colored formazan dye, detected by absorbance at 450 nm, by mitochondrial succinate-tetrazolium reductase in viable cells. […]

CEM = test: WST-1 proliferation assay, CEM; conditions: Homo sapiens, CCRF-CEM; Acute lymphoblastic leukemia CEM; read-out: Anti-proliferative activity IC50 (μM) ± SD
Protocol: (§4) All the cancer cell lines were maintained in cultured in DMEM GlutaMAX™ (GIBCO Invitrogen, France, cat no 31966047) enhanced with 10% foetal bovine serum (GIBCO Invitrogen, France, cat no 10270-106) and 1% penicillin G/streptomycin (GIBCO Invitrogen, France, cat no 15140-122). Only Panc-10.5 cells were cultivated in RPMI 1640 medium (Gibco) supplemented with 2 mM L-glutamine, 1.5 g/L sodium bicarbonate, 4.5 g/L glucose, 10 mM HEPES, 1 mM sodium pyruvate, 10 Units/ml human insulin, […] (SVF): 15% (75 ml in 500 ml of medium).
(§5) Cells were grown as subconfluent monolayer and cultured in 75 cm^2 flasks at 37° C., 5% CO2 in a humidified atmosphere, and medium was changed every two days. […]
as §3
(§6) After an incubation period of 72 h, at day 4, were prepared the 19 ml medium with reagent WST-1 1 ml ([…]). […] The cells were incubated at 37° C. in a humidified atmosphere of 5% CO2 for 1 h 30 and the absorbance at 450-655 nm was measured by Microplate Manager 5.2 (Bio-Rad).

GRANTA-519 = test: WST-1 proliferation assay, GRANTA-519; conditions: Homo sapiens; Mantle cell lymphoma GRANTA-519; read-out: Anti-proliferative activity IC50 (μM) ± SD
Protocol: as §4, §5, §3, §6

PC-3 = test: WST-1 proliferation assay, PC-3; conditions: Homo sapiens; PC-3, 0.05 μM
Panc-10.5 = test: WST-1 proliferation assay, Panc-10.5; conditions: Homo sapiens; PANC - 10.5, 0.05 μM
VAL = test: WST-1 proliferation assay, VAL; conditions: Homo sapiens; B lymphoma VAL; read-out: Anti-proliferative activity IC50 (μM) ± SD
Protocol: as §4, §5, §3, §6

HT-1080 = test: WST-1 proliferation assay, HT-1080; conditions: Homo sapiens; Fibrosarcoma HT-1080; read-out: Anti-proliferative activity IC50 (μM) ± SD
Protocol: as §4, §5, §3, §6

SH-SY5Y = test: WST-1 proliferation assay, SH-SY5Y; conditions: Homo sapiens; Brain SH-SY5Y, 72 h; read-out: Anti-proliferative activity IC50 (μM) ± SD
Source text: as §1, §2, §3

In the case of O=C(NC(=S)Nc1cccc(-c2nc3ccccc3[nH]2)c1)c1ccc2c(c1)OCCO2 [Compound 2, N-[3-(1H-benzimidazol-2-yl)phenyl]-N′-(2,3-dihydro-1,4-benzodioxin-6-ylcarbonyl)thiourea], the “cytotoxicity for endothelial cell lines (HUVEC cells) in culture” value (HUVEC cells) is reported as “cytotoxic”, the IC50 (HUVEC cells) is reported as 50 ± 10 nM and the IC50 (MDA-MB-436) is reported as 2.3 ± 0.03 µM. The IC50 (CEM) was 0.3 ± 0.04 µM, the IC50 (GRANTA-519) was 0.5 ± 0.02 µM and the inhibition at 0.05 µM (PC-3) was 0%. For the same compound, the inhibition at 0.05 µM (Panc-10.5) was 35%, the IC50 (VAL) was 1 µM and the IC50 (HT-1080) was 0.07 ± 0.03 µM. For the same compound, the IC50 (SH-SY5Y) was 0.05 ± 0.04 µM.
In the case of Cc1ccc(-c2nc3ccccc3[nH]2)cc1NC(=S)NC(=O)c1ccc2c(c1)OCCO2 [Compound 1, N-[5-(1H-benzimidazol-2-yl)-2-methylphenyl]-N′-(2,3-dihydro-1,4-benzodioxin-6-ylcarbonyl)thiourea], the “cytotoxicity for endothelial cell lines (HUVEC cells) in culture” value (HUVEC cells) is reported as “cytotoxic”, the IC50 (HUVEC cells) is reported as 200 ± 10 nM and the IC50 (MDA-MB-436) is reported as 1.5 ± 0.02 µM. For the same compound, the IC50 (CEM) was 0.5 ± 0.01 µM, the IC50 (GRANTA-519) was 1 µM and the inhibition at 0.05 µM (PC-3) was 0%. The inhibition at 0.05 µM (Panc-10.5) was 18%, the IC50 (VAL) was 1.8 ± 0.04 µM and the IC50 (HT-1080) was 0.3 ± 0.23 µM. For the same compound, the IC50 (SH-SY5Y) was 0.4 ± 0.03 µM.
